This note sets out measurements from patent US8044053B2, “Sulfonamide substituted pyrazoline compounds, their preparation and use as CB1 modulators” (Laboratories del Dr. Esteve, S.A., priority 2006, dated 2011).

For this experiment, the target named is CB1-receptor (UniProt P20272). The experiment in a line: In-vitro determination of affinity (binding) to CB1-receptors, radioligand [3H]-CP55940. On the set-up: IC50; Ki; species or system human or rat. As to conditions: Pharmacological Methods Part I. The method, then: I. In-Vitro Determination of Affinity to CB1/CB2-Receptors
The in-vitro determination of the affinity of the inventive substituted pyrazoline compounds to CB1/CB2-Rezeptors is carried out as described in the publication of Ruth A. Ross, Heather C. Brockie et al., “Agonist-inverse agonist characterisation at CB1 and CB2 cannabinoid receptors of L-759633, L759656 and AM630”, British Journal of Pharmacology, 126, 665-672, (1999), whereby the transfected human CB1 and CB2 receptors of Receptor Biology, Inc. are used. The radioligand used for both receptors is [^3H]-CP55940. The respective parts of the description is hereby incorporated by reference and forms part of the present disclosure.
Rat Cerebellum CB1 Binding
Binding affinity to CB1 receptor was evaluated according to a modification of the method described by Govaerts et al., Eur J Pharmac Sci 23, 233-243 (2004). The respective parts of the description is hereby incorporated by reference and forms part of the present disclosure.
Briefly, cerebellum from male wistar rats (250-300 g) were carefully dissected on ice and homogenates were prepared with Potter-Helveheim in a cold 50 mM Tris-HCl solution containing 5 mM MgCl2, 1 mM EDTA and 0.25 M sucrose, pH 7.4. The suspension was centrifuged at 1,000×g for 5 minutes. The supernatants were collected and centrifuged 50,000×g for 15 minutes. The resulting pellets were then resuspended in Tris-HCl buffer without sucrose, homogenised and incubated for 15 min at 37° C. in an orbital shaker bath and centrifuged again at 50,000×g for 15 min. Pellets were weighted, resuspended in Tris-HCl buffer without sucrose, homogenised with Ultraturrax at 13,500 rpm for 3×5 seconds and alicuoted in 0.9 ml volumes in Eppendorf tubes. Alicuotes were centrifuged at 20,800×g for 5 minutes, supernatants discarded and pellets were frozen at −80° C. until use. Total protein concentration was determined using the Bio-Rad Lowry method based kit. Competitive binding experiments were performed in presence of 1 nM [^3H]-CP 55,940 in siliconised glass tubes containing 100 μg protein/tube resuspended in 1 ml final volume of 50 mM Tris-HCl, 5 mM MgCl2, 1 mM EDTA, 0.5% (w/v) bovine serum albumin, pH 7.4. Compounds were present at various concentrations and the non specific binding was determined in the presence of 10 μM HU-210. After 1 hour incubation at 30° C., the suspension was rapidly filtered through 0.5% PEI pre-treated GF/B fiber filters on a 96-well harvester and washed 3 times with 3 ml ice-cold binding buffer without bovine serum albumin. Radioactivity on filters was measured with Wallac Winspectral 1414 counter by liquid scintillation in 6 ml Ecoscint H (National Diagnostics, U.K.). Assays were made in triplicates.
Binding data were analysed by non-linear regression with the software GraphPad Prism Version 3.03.
The binding of the pyrazoline compounds of general formulae I, Ia and Ib to CB1-receptors was determined according to the method described in the section Pharmacological Methods, Part I.
As for `O=S(=O)(NCC1=NN(c2ccc(Cl)cc2Cl)C(c2ccc(Cl)cc2)C1)c1cc(Cl)ccc1Cl` (stereo not shown) [Example 139, 2,5-Dichloro-N-[5-(4-chloro-phenyl)-1-(2,4-dichloro-phenyl)-4,5-dihydro-1H-pyrazol-3-ylmethyl]-benzenesulfonamide], the IC50 (in general, the concentration that inhibits the measured activity by half) amounted to 16.5 nM and the inhibition constant Ki (commonly the equilibrium dissociation constant of an inhibitor or competing ligand from its target) is 7 nM.
On to `COc1ccc(C2CC(CNS(=O)(=O)c3cc(Cl)ccc3F)=NN2c2ccc(Cl)cc2Cl)cc1` (stereo not shown) [Example 94, 5-Chloro-N-[1-(2,4-dichloro-phenyl)-5-(4-methoxy-phenyl)-4,5-dihydro-1-pyrazol-3-ylmethyl]-2-fluoro-benzenesulfonamide], for which the half-maximal inhibitory concentration (IC50) stood at 74 nM and the inhibition constant (Ki) came to 33 nM.
For `CCOc1ccc(C2CC(CNS(=O)(=O)c3cccc(Cl)c3F)=NN2c2ccc(Cl)cc2Cl)cc1` (stereo not shown) [Example 250, 3-Chloro-N-[1-(2,4-dichloro-phenyl)-5-(4-ethoxy-phenyl)-4,5-dihydro-1H-pyrazol-3-ylmethyl]-2-fluoro-benzenesulfonamide] the same measures were 39.7 nM and 16.6 nM.
`CCOc1ccc(C2CC(CNS(=O)(=O)c3ccccc3Br)=NN2c2ccc(Cl)cc2Cl)cc1` (stereo not shown) [Example 249, 2-Bromo-N-[1-(2,4-dichloro-phenyl)-5-(4-ethoxy-phenyl)-4,5-dihydro-1H-pyrazol-3-ylmethyl]-benzenesulfonamide] displayed an IC50 of 5.6 nM and a Ki of 2.4 nM.
Regarding `O=S(=O)(NCC1=NN(c2ccc(Cl)cc2Cl)C(c2ccc(Cl)cc2)C1)c1cc(C(F)(F)F)ccc1Cl` (stereo not shown) [Example 81, 2-Chloro-N-[5-(4-chloro-phenyl)-1-(2,4-dichloro-phenyl)-4,5-dihydro-1H-pyrazol-3-ylmethyl]-5-trifluoromethyl-benzenesulfonamide], the 50% inhibitory concentration (IC50) came out at 15.2 nM and the affinity, expressed as Ki, was 6.9 nM.
The like results for `COc1ccc(C2CC(CNS(=O)(=O)c3ccccc3Cl)=NN2c2ccc(Cl)cc2Cl)cc1` (stereo not shown) [Example 217, 2-Chloro-N-[1-(2,4-dichloro-phenyl)-5-(4-methoxy-phenyl)-4,5-dihydro-1H-pyrazol-3-ylmethyl]-benzenesulfonamide] were, in that order, 69 nM and 30.8 nM.
Turning to `O=S(=O)(NCC1=NN(c2ccc(Cl)cc2Cl)[C@@H](c2ccc(Cl)cc2)C1)c1ccccc1` [Example 194, (R)-N-[5-(4-Chloro-phenyl)-1-(2,4-dichloro-phenyl)-4,5-dihydro-1H-pyrazol-3-ylmethyl]-benzenesulfonamide], the half-inhibitory concentration (IC50) came to 88.9 nM and affinity was put at a Ki of 38.3 nM.
The like results for `CCOc1ccc(C2CC(CNS(=O)(=O)c3cccc(C#N)c3)=NN2c2ccc(Cl)cc2Cl)cc1` (stereo not shown) [Example 271, 3-Cyano-N-[1-(2,4-dichloro-phenyl)-5-(4-ethoxy-phenyl)-4,5-dihydro-1H-pyrazol-3-ylmethyl]-benzenesulfonamide] were, in that order, 10.2 nM and 4.4 nM.
As for `CCOc1ccc(C2CC(CNS(=O)(=O)c3cc(F)ccc3F)=NN2c2ccc(Cl)cc2Cl)cc1` (stereo not shown) [Example 99, N-[1-(2,4-Dichloro-phenyl)-5-(4-ethoxy-phenyl)-4,5-dihydro-1H-pyrazol-3-ylmethyl]-2,5-difluoro-benzenesulfonamide], the IC50 stood at 42.6 nM and the affinity, expressed as Ki, was 17.9 nM.
For the compound `O=[N+]([O-])c1cccc(S(=O)(=O)NCC2=NN(c3ccc(Cl)cc3Cl)C(c3ccc(Cl)cc3)C2)c1` (stereo not shown) [Example 144, N-[5-(4-Chloro-phenyl)-1-(2,4-dichloro-phenyl)-4,5-dihydro-1H-pyrazol-3-ylmethyl]-3-nitro-benzenesulfonamide], the IC50 came out at 55 nM and the Ki is 23.2 nM.
`CCOc1ccc(C2CC(CNS(=O)(=O)c3cc(C(F)(F)F)ccc3Cl)=NN2c2ccc(Cl)cc2Cl)cc1` (stereo not shown) [Example 101, 2-Chloro-N-[1-(2,4-dichloro-phenyl)-5-(4-ethoxy-phenyl)-4,5-dihydro-1H-pyrazol-3-ylmethyl]-5-trifluoromethyl-benzenesulfonamide] gave an IC50 of 12.8 nM and a Ki of 5.6 nM.
